The source of these data is US8835458B2 (Hanmi Science Co., Ltd, priority 2010, dated 2014).

Data set [1] in a line: Toxicity to normal cells (SRB). In kind it is cell-based, mouse. The settings on record: mouse, Balb/c3t3 fibroblasts (normal cell line), read-out: BalB/C (GI50). An outline of the steps: (§1)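 Cells seeded at 3,000˜5,000 cells/100 μL, grown 24 h at 37° C (MDA-MB-231 under atmospheric conditions), then exposed to 10 μM˜0.1 nM compound. MDA-MB-231 cultured 120 h, read by MTS at 490 nm; fibroblasts cultured 72 h, TCA-fixed, SRB-stained, read at 540 nm. GI50 from growth relative to untreated and medium-only cells.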

Data set [2] concerns MDA-MB-231 breast cancer cell lines. The data set can be described thus: Evaluation of inhibition on cell growth (MTS). In kind it is cell-based. The settings on record: Homo sapiens, MDA-MB-231, 120 hours. The gist of the method:
as §1

Data set [3] is described as follows: Toxicity to normal cells (SRB). In kind it is cell-based, human. The following applies: human, Hs27 fibroblasts (normal cell line). An outline of the steps:
as §1

SMILES strings stand for the structures. Structures can show the parent of a compound that is named as a salt. Where two headings read alike, the source gives them in different places.

As for `CN[C@@H](C)C(=O)N[C@H](C(=O)N1C[C@H](OCc2ccccc2)C[C@H]1C(=O)Nc1cc2c(Nc3ccc(F)c(Cl)c3F)ncnc2cc1OC)C(C)(C)C` [Example 46, (2S,4R)-4-(benzyloxy)-N-(4-(3-chloro-2,4-difluorophenylamino)-7-methoxyquinazolin-6-yl)-1-((S)-3,3-dimethyl-2-((S)-2-(methylamino)propanamido)butanoyl)pyrrolidine-2-carboxamide hydrochloride], the GI50 at 72 h in data set [1] and in data set [3] was above 10 µM throughout. Moreover, the GI50 in data set [2] is at most 0.1 µM.

As to `CN[C@@H](C)C(=O)N[C@H](C(=O)N1CCC[C@H]1C(=O)Nc1cc2c(Nc3ccccc3N3CCOCC3)ncnc2cc1OC)C(C)(C)C` [Example 47, (S)-1-((S)-3,3-dimethyl-2-((S)-2-(methylamino)propanamido)butanoyl)-N-(7-methoxy-4-(2-morpholinophenylamino)quinazolin-6-yl)pyrrolidine-2-carboxamide], the GI50 at 72 h in data set [1] and in data set [3] was above 10 µM each time. Further, the GI50 in data set [2] is at most 0.1 µM.

Turning to `CN[C@@H](C)C(=O)N[C@H](C(=O)N1CCC[C@H]1C(=O)Nc1ccc2ncnc(Nc3ccc(F)c(Cl)c3F)c2c1)C(C)(C)C` [Example 48, (S)—N-(4-(3-chloro-2,4-difluorophenylamino)quinazolin-6-yl)-1-((S)-3,3-dimethyl-2-((S)-2-(methylamino)propanamido)butanoyl)pyrrolidine-2-carboxamide], the GI50 at 72 h in data set [1] and in data set [3] was above 10 µM throughout. In data set [2], this molecule showed a GI50 of at most 0.1 µM.

Turning to `CN[C@@H](C)C(=O)N[C@H](C(=O)N1CCC[C@H]1C(=O)Nc1cc2c(Nc3ccc(OC)cc3)ncnc2cc1OC)C(C)(C)C` [Example 49, (S)-1-((S)-3,3-dimethyl-2-((S)-2-(methylamino)propanamido)butanoyl)-N-(7-methoxy-4-(4-methoxyphenylamino)quinazolin-6-yl)pyrrolidine-2-carboxamide hydrochloride], the GI50 at 72 h in data set [1] and in data set [3] was above 10 µM throughout. This molecule returned a GI50 in data set [2] of at most 0.1 µM.

On to `CN[C@@H](C)C(=O)N[C@H](C(=O)N1CCC[C@H]1C(=O)Nc1cc2c(N3CCCc4ccccc43)ncnc2cc1OC)C(C)(C)C` [Example 50, (S)—N-(4-(3,4-dihydroquinoline-1(2H)-yl)-7-methoxyquinazolin-6-yl)-1-((S)-3,3-dimethyl-2-((S)-2-(methylamino)propanamido)butanoyl)pyrrolidine-2-carboxamide hydrochloride], for which the GI50 at 72 h in data set [1] and in data set [3] was above 10 µM throughout. The molecule further returned a GI50 in data set [2] of at most 0.1 µM.

As for `CN[C@@H](C)C(=O)N[C@H](C(=O)N1CCC[C@H]1C(=O)Nc1cc2c(Nc3c(Cl)ccc4c3OCO4)ncnc2cc1OC)C(C)(C)C` [Example 51, (S)—N-(4-(5-chlorobenzo[d][1,3]dioxol-4-ylamino)-7-methoxyquinazolin-6-yl)-1-((S)-3,3-dimethyl-2-((S)-2-(methylamino)propanamido)butanoyl)pyrrolidine-2-carboxamide hydrochloride], the GI50 at 72 h in data set [1] and in data set [3] was above 10 µM each time. The same molecule displayed a GI50 in data set [2] of at most 0.1 µM.

In the case of `CN[C@@H](C)C(=O)N[C@H](C(=O)N1CCC[C@H]1C(=O)Nc1cc2c(Nc3ccc4c(c3)CCC4)ncnc2cc1OC)C(C)(C)C` [Example 52, (S)—N-(4-(2,3-dihydro-1H-inden-5-ylamino)-7-methoxyquinazolin-6-yl)-1-((S)-3,3-dimethyl-2-((S)-2-(methylamino)propanamido)butanoyl)pyrrolidine-2-carboxamide hydrochloride], the GI50 at 72 h in data set [1] and in data set [3] was above 10 µM each time. In data set [2], the GI50 is at most 0.1 µM.

`CN[C@@H](C)C(=O)N[C@H](C(=O)N1CCC[C@H]1C(=O)Nc1cc2c(Nc3ccc4ncccc4c3)ncnc2cc1OC)C(C)(C)C` [Example 53, (S)-1-((S)-3,3-dimethyl-2-((S)-2-(methylamino)propanamido)butanoyl)-N-(7-methoxy-4-(quinoline-6-ylamino)quinazolin-6-yl)pyrrolidine-2-carboxamide]: the GI50 at 72 h in data set [1] and in data set [3] was above 10 µM each time. Moreover, the GI50 in data set [2] is at most 0.1 µM.

With `CN[C@@H](C)C(=O)N[C@H](C(=O)N1CCC[C@H]1C(=O)Nc1cc2c(Nc3ccc4[nH]ncc4c3)ncnc2cc1OC)C(C)(C)C` [Example 54, (S)—N-(4-(1H-indazol-5-ylamino)-7-methoxyquinazolin-6-yl)-1-((S)-3,3-dimethyl-2-((S)-2-(methylamino)propanamido)butanoyl)pyrrolidine-2-carboxamide], the GI50 at 72 h in data set [1] and in data set [3] was above 10 µM each time. In addition, the GI50 in data set [2] was at most 0.1 µM.

Turning to `CN[C@@H](C)C(=O)N[C@H](C(=O)N1CCC[C@H]1C(=O)Nc1cc2c(Nc3ccc(F)cc3)ncnc2cc1OC)C(C)(C)C` [Example 55, (S)-1-((S)-3,3-dimethyl-2-((S)-2-(methylamino)propanamido)butanoyl)-N-(4-(4-fluorophenylamino)-7-methoxyquinazolin-6-yl)pyrrolidine-2-carboxamide], the GI50 at 72 h in data set [1] and in data set [3] was above 10 µM each time. This molecule had a GI50 in data set [2] of at most 0.1 µM.

Regarding `CN[C@@H](C)C(=O)N[C@H](C(=O)N1CCC[C@H]1C(=O)Nc1cc2c(Nc3ccc(Cl)cc3)ncnc2cc1OC)C(C)(C)C` [Example 56, (S)—N-(4-(4-chlorophenylamino)-7-methoxyquinazolin-6-yl)-1-((S)-3,3-dimethyl-2-((S)-2-(methylamino)propanamido)butanoyl)pyrrolidine-2-carboxamide], the GI50 at 72 h in data set [1] and in data set [3] was above 10 µM throughout. Moreover, in data set [2], the GI50 is at most 0.1 µM.

`CN[C@@H](C)C(=O)N[C@H](C(=O)N1CCC[C@H]1C(=O)Nc1cc2c(Nc3cccc(OC)c3)ncnc2cc1OC)C(C)(C)C` [Example 57, (S)-1-((S)-3,3-dimethyl-2-((S)-2-(methylamino)propanamido)butanoyl)-N-(7-methoxy-4-(3-methoxyphenylamino)quinazolin-6-yl)pyrrolidine-2-carboxamide hydrochloride]: the GI50 at 72 h in data set [1] and in data set [3] was above 10 µM each time. The GI50 in data set [2] is at most 0.1 µM.

As for `CN[C@@H](C)C(=O)N[C@H](C(=O)N1CCC[C@H]1C(=O)Nc1cc2c(Nc3ccc(Cl)cc3Cl)ncnc2cc1OC)C(C)(C)C` [Example 58, (S)—N-(4-(2,4-dichlorophenylamino)-7-methoxyquinazolin-6-yl)-1-((S)-3,3-dimethyl-2-((S)-2-(methylamino)propanamido)butanoyl)pyrrolidine-2-carboxamide hydrochloride], the GI50 at 72 h in data set [1] and in data set [3] was above 10 µM each time. In addition, the GI50 in data set [2] was at most 0.1 µM.

Regarding `CN[C@@H](C)C(=O)N[C@H](C(=O)N1CCC[C@H]1C(=O)Nc1cc2c(Nc3c(F)cccc3F)ncnc2cc1OC)C(C)(C)C` [Example 59, (S)—N-(4-(2,6-difluorophenylamino)-7-methoxyquinazolin-6-yl)-1-((S)-3,3-dimethyl-2-((S)-2-(methylamino)propanamido)butanoyl)pyrrolidine-2-carboxamide], the GI50 at 72 h in data set [1] and in data set [3] was above 10 µM in each case. In data set [2], this molecule yielded a GI50 of at most 0.1 µM.
